# Laboratory results: patent publication US20040067507A1, “Liver inflammation predictive genes” (priority 2002, published 2004)
# Read-outs that look alike come from different tables or passages of the source.
# System: Sprague Dawley rats Crl:CD
# Assay type: in vivo, rat
# From the text: In addition to the database described and utilized herein, other toxicology gene expression databases may be generated, and used to identify additional liver toxicity biomarkers, which may also be employed in the practice of the liver inflammation prediction methods of the invention. […] An example of compounds, dose levels, liver toxicity classifications and histopathology scores used in the Examples which follow are provided in Table 1. The compounds and dose levels are abbreviated in the Abbreviation Column. The Inflammation Score relates the histopathology liver inflammation, a score of “2” or higher indicates histopathology of increasing severity.
# Identification of Correlating Genes: For the purpose of identifying candidate predictive genes, the database preferably includes histopathology scores for each animal which has been exposed to one or more agent(s). […] The scores are numerical scores that reflect the occurrence and severity of histopathological changes. These scores can be adjusted to have similar range to gene expression changes. […] Because the scores are numerical, they are suitable for use with a variety of statistical correlation and similarity measures.
# Sprague Dawley rats Crl:CD from Charles River, Raleigh, N.C. were divided into treated rats that receive a specific concentration of the compound (see Table 1) and the control rats that only received the vehicle in which the compound is mixed (e.g., saline).
# At specified timepoints (6 h, 24 h and 72 h) after administration (intraperitoneal route) of the compound, a set number of rats (usually 3 control and 3 treated) were euthanized and tissues collected. Each rat was heavily sedated with an overdose of CO2 by inhalation and a maximum amount of blood drawn. Exsanguination of the rat by this drawing of blood kills the rat. The method of collecting the tissues is very important and ensures preserving the quality of the mRNA in the tissues. The body of the rat was then opened up and prosectors rapidly removed the tissues (including liver) and immediately placed them into liquid nitrogen. […] The organs/tissues were then packaged into well-labeled plastic freezer quality bags and stored at −80 degrees until needed for isolation of the mRNA from a portion of the organ/tissue sample.
# Correlation with Histopathology Scores: Histopathology scores for each animal (assigned on a compound-dose basis as indicated in Table 1) were entered with gene expression data by using the GeneSpring™ ‘Drawn Gene’ function. Correlations between inflammation histopathology scores and gene expression were conducted with the distance measures listed below: […]
# [1] = 20 mg/kg i.p., 72 h, 1=no histopathology, 2 or higher=increasing severity
# [2] = 75 mg/kg i.p., 72 h, 1=no histopathology, 2 or higher=increasing severity
# [3] = 15 mgkg i.p., 72 h, 1=no histopathology, 2 or higher=increasing severity
# [4] = 60 mgkg i.p., 72 h, 1=no histopathology, 2 or higher=increasing severity
# [5] = 13 mg/kg i.p., 72 h, 1=no histopathology, 2 or higher=increasing severity
# [6] = 50 mg/kg i.p., 72 h, 1=no histopathology, 2 or higher=increasing severity
# [7] = Sprague Dawley Crl:CD, rat, in vivo
# [8] = 5 mg/kg i.p., 72 h, 1=no histopathology, 2 or higher=increasing severity
# [9] = Sprague Dawley Crl:CD, rat, in vivo, ip
# [10] = 30 mg/kg i.p., 72 h, 1=no histopathology, 2 or higher=increasing severity
# [11] = 0.2 ml/kg i.p., 72 h, 1=no histopathology, 2 or higher=increasing severity
# [12] = 0.8 ml/kg i.p., 72 h, 1=no histopathology, 2 or higher=increasing severity
# [13] = 14 mg/kg i.p., 72 h, 1=no histopathology, 2 or higher=increasing severity
# [14] = 1 mg/kg i.p., 72 h, 1=no histopathology, 2 or higher=increasing severity
# [15] = 2 mg/kg i.p., 72 h, 1=no histopathology, 2 or higher=increasing severity
# [16] = 4 mg/kg i.p., 72 h, 1=no histopathology, 2 or higher=increasing severity
# [17] = 0.25 ml/kg i.p., 72 h, 1=no histopathology, 2 or higher=increasing severity
# [18] = 1 ml/kg i.p., 72 h, 1=no histopathology, 2 or higher=increasing severity
# [19] = 16 mg/kg i.p., 72 h, 1=no histopathology, 2 or higher=increasing severity
# [20] = 8 mg/kg i.p., 72 h, 1=no histopathology, 2 or higher=increasing severity
# [21] = 2.5 mg/kg i.p., 72 h, 1=no histopathology, 2 or higher=increasing severity
# [22] = 10 mg/kg i.p., 72 h, 1=no histopathology, 2 or higher=increasing severity
# [23] = 250 mg/kg i.p., 72 h, 1=no histopathology, 2 or higher=increasing severity
# [24] = 0.5 mg/kg i.p., 72 h, 1=no histopathology, 2 or higher=increasing severity
# [25] = 12 mg/kg i.p., 72 h, 1=no histopathology, 2 or higher=increasing severity
structure (smiles),measurement,setting,value
CN(N=O)C(=O)N[C@H]1C(O)O[C@H](CO)[C@@H](O)[C@@H]1O (mixture of isomers) [streptozotocin],Liver Inflammation,"20 mg/kg i.p., 72 h",no
same,Liver Necrosis,"20 mg/kg i.p., 72 h",no
same,Inflamm. Score,[1],1
same,Necr. Score,[1],1
same,Liver Inflammation,"75 mg/kg i.p., 72 h",no
same,Liver Necrosis,"75 mg/kg i.p., 72 h",no
same,Inflamm. Score,[2],1
same,Necr. Score,[2],1
S=C=Nc1cccc2ccccc12 [1-naphthylisothiocyanate],Liver Necrosis,"15 mgkg i.p., 72 h",no
same,Inflamm. Score,[3],1
same,Necr. Score,[3],1
same,Liver Necrosis,"60 mgkg i.p., 72 h",yes
same,Inflamm. Score,[4],2
same,Necr. Score,[4],2
O=c1[nH]cc(F)c(=O)[nH]1 [5-fluorouracil],Liver Inflammation,"13 mg/kg i.p., 72 h",no
same,Liver Necrosis,"13 mg/kg i.p., 72 h",no
same,Inflamm. Score,[5],1
same,Necr. Score,[5],1
same,Liver Inflammation,"50 mg/kg i.p., 72 h",no
same,Liver Necrosis,"50 mg/kg i.p., 72 h",no
same,Inflamm. Score,[6],1
same,Necr. Score,[6],1
CC(=O)Nc1ccc(O)cc1 [acetaminophen],Inflamm. Score,[7],1
same,Liver Inflammation,"rat, in vivo",no
COc1cc2c(c3oc(=O)c4c(c13)CCC4=O)[C@@H]1C=CO[C@@H]1O2 [aflatoxin],Inflamm. Score,"rat, in vivo",4
same,Liver Inflammation,"rat, in vivo",yes
same,Liver Necrosis,"rat, in vivo",yes
same,Necr. Score,"rat, in vivo",8
C[C@@H]1[C@H](O)[C@@H](C)/C=C/C=C/C=C/C=C/C=C/C=C/C=C/[C@H](O[C@@H]2O[C@H](C)[C@@H](O)[C@H](N)[C@@H]2O)C[C@@H]2O[C@](O)(C[C@@H](O)C[C@@H](O)[C@H](O)CC[C@@H](O)C[C@@H](O)CC(=O)O[C@H]1C)C[C@H](O)[C@H]2C(=O)O [amphotericin B],Liver Inflammation,"5 mg/kg i.p., 72 h",no
same,Liver Necrosis,"5 mg/kg i.p., 72 h",no
same,Inflamm. Score,[8],1
same,Necr. Score,[8],1
same,Liver Inflammation,"20 mg/kg i.p., 72 h",no
same,Liver Necrosis,"20 mg/kg i.p., 72 h",no
same,Inflamm. Score,[1],1
same,Necr. Score,[1],1
Cn1cnc([N+](=O)[O-])c1Sc1ncnc2nc[nH]c12 [azathioprine],Inflamm. Score,[7],1
same,Necr. Score,[7],1
same,Liver Inflammation,"rat, in vivo",no
same,Liver Necrosis,"rat, in vivo",no
c1ccccc1 [benzene],Inflamm. Score,[9],1
same,Necr. Score,[9],1
same,Liver Inflammation,"rat, in vivo, ip",no
same,Liver Necrosis,"rat, in vivo, ip",no
c1ccc2c(c1)cc1ccc3cccc4ccc2c1c34 [benzo[a]pyrene],Liver Inflammation,"30 mg/kg i.p., 72 h",no
same,Liver Necrosis,"30 mg/kg i.p., 72 h",no
same,Inflamm. Score,[10],1
same,Necr. Score,[10],1
Brc1ccccc1 [bromobenzene],Liver Inflammation,"0.2 ml/kg i.p., 72 h",yes
same,Liver Necrosis,"0.2 ml/kg i.p., 72 h",yes
same,Inflamm. Score,[11],2
same,Necr. Score,[11],2
same,Liver Inflammation,"0.8 ml/kg i.p., 72 h",yes
same,Liver Necrosis,"0.8 ml/kg i.p., 72 h",yes
same,Inflamm. Score,[12],3
same,Necr. Score,[12],4
CS(=O)(=O)OCCCCOS(C)(=O)=O [busulfan],Liver Inflammation,"14 mg/kg i.p., 72 h",no
same,Liver Necrosis,"14 mg/kg i.p., 72 h",no
same,Inflamm. Score,[13],1
same,Necr. Score,[13],1
[Cl][Cd][Cl] [cadmium chloride],Liver Inflammation,"1 mg/kg i.p., 72 h",no
same,Liver Necrosis,"1 mg/kg i.p., 72 h",no
same,Inflamm. Score,[14],1
same,Necr. Score,[14],1
same,Liver Inflammation,"2 mg/kg i.p., 72 h",no
same,Liver Necrosis,"2 mg/kg i.p., 72 h",no
same,Inflamm. Score,[15],1
same,Necr. Score,[15],1
same,Liver Inflammation,"4 mg/kg i.p., 72 h",yes
same,Liver Necrosis,"4 mg/kg i.p., 72 h",yes
same,Inflamm. Score,[16],2
same,Necr. Score,[16],3
ClC(Cl)(Cl)Cl [carbon tetrachloride],Liver Inflammation,"0.25 ml/kg i.p., 72 h",no
same,Liver Necrosis,"0.25 ml/kg i.p., 72 h",yes
same,Inflamm. Score,[17],1
same,Necr. Score,[17],3
same,Liver Inflammation,"1 ml/kg i.p., 72 h",yes
same,Liver Necrosis,"1 ml/kg i.p., 72 h",yes
same,Inflamm. Score,[18],3
same,Necr. Score,[18],6
same,liver necrosis or necrosis with inflammation,high dose,produced liver necrosis or necrosis with inflammation
same,liver necrosis or necrosis with inflammation,low dose,not at the low dose
O=NN(CCCl)C(=O)NCCCl [carmustine],Liver Inflammation,"16 mg/kg i.p., 72 h",no
same,Liver Necrosis,"16 mg/kg i.p., 72 h",no
same,Inflamm. Score,[19],1
same,Necr. Score,[19],1
ClC(Cl)Cl [chloroform],Inflamm. Score,[9],1
same,Necr. Score,[9],1
same,Liver Inflammation,"rat, in vivo, ip",no
same,Liver Necrosis,"rat, in vivo, ip",no
CN(C)CCCN1c2ccccc2Sc2ccc(Cl)cc21 [chlorpromazine],Liver Inflammation,"8 mg/kg i.p., 72 h",no
same,Liver Necrosis,"8 mg/kg i.p., 72 h",no
same,Inflamm. Score,[20],1
same,Necr. Score,[20],1
same,Liver Inflammation,"30 mg/kg i.p., 72 h",no
same,Liver Necrosis,"30 mg/kg i.p., 72 h",no
same,Inflamm. Score,[10],1
same,Necr. Score,[10],1
N.N.[Cl][Pt][Cl] [cisplatin],Liver Inflammation,"2.5 mg/kg i.p., 72 h",no
same,Liver Necrosis,"2.5 mg/kg i.p., 72 h",no
same,Inflamm. Score,[21],1
same,Necr. Score,[21],1
same,Liver Inflammation,"10 mg/kg i.p., 72 h",no
same,Liver Necrosis,"10 mg/kg i.p., 72 h",no
same,Inflamm. Score,[22],1
same,Necr. Score,[22],1
CCOC(=O)C(C)(C)Oc1ccc(Cl)cc1 [clofibrate],Liver Inflammation,"75 mg/kg i.p., 72 h",no
same,Liver Necrosis,"75 mg/kg i.p., 72 h",no
same,Inflamm. Score,[2],1
same,Necr. Score,[2],1
same,Liver Inflammation,"250 mg/kg i.p., 72 h",no
same,Liver Necrosis,"250 mg/kg i.p., 72 h",no
same,Inflamm. Score,[23],1
same,Necr. Score,[23],1
CN1CCN(C2=Nc3cc(Cl)ccc3Nc3ccccc32)CC1 [clozapine],Inflamm. Score,[7],1
same,Necr. Score,[7],1
same,Liver Inflammation,"rat, in vivo",no
same,Liver Necrosis,"rat, in vivo",no
C[C@@H]1C[C@@H]([C@H](O)CC2CC(=O)NC(=O)C2)C(=O)[C@@H](C)C1 [cycloheximide],Liver Inflammation,"0.5 mg/kg i.p., 72 h",no
same,Liver Necrosis,"0.5 mg/kg i.p., 72 h",no
same,Inflamm. Score,[24],1
same,Necr. Score,[24],1
same,Liver Inflammation,"2 mg/kg i.p., 72 h",no
same,Liver Necrosis,"2 mg/kg i.p., 72 h",no
same,Inflamm. Score,[15],1
same,Necr. Score,[15],1
O=P1(N(CCCl)CCCl)NCCCO1 (centres unmarked) [cyclophosphamide],Inflamm. Score,[7],1
same,Necr. Score,[7],1
same,Liver Inflammation,"rat, in vivo",no
same,Liver Necrosis,"rat, in vivo",no
C[C@@H]1C[C@H]2[C@@H]3CCC4=CC(=O)C=C[C@]4(C)[C@@]3(F)[C@@H](O)C[C@]2(C)[C@@]1(O)C(=O)CO [dexamethasone],Inflamm. Score,[7],1
same,Necr. Score,[7],1
same,Liver Inflammation,"rat, in vivo",no
same,Liver Necrosis,"rat, in vivo",no
O=C(O)c1cc(-c2ccc(F)cc2F)ccc1O [diflunisal],Inflamm. Score,[7],1
same,Necr. Score,[7],1
same,Liver Inflammation,"rat, in vivo",no
same,Liver Necrosis,"rat, in vivo",no
CN(C)N=O [dimethylnitrosamine],Liver Inflammation,"20 mg/kg i.p., 72 h",yes
same,Liver Necrosis,"20 mg/kg i.p., 72 h",yes
same,Inflamm. Score,[1],4
same,Necr. Score,[1],9
COc1cccc2c1C(=O)c1c(O)c3c(c(O)c1C2=O)C[C@@](O)(C(=O)CO)C[C@@H]3O[C@H]1C[C@H](N)[C@H](O)[C@H](C)O1 [doxorubicin],Liver Inflammation,"12 mg/kg i.p., 72 h",no
same,Liver Necrosis,"12 mg/kg i.p., 72 h",no
same,Inflamm. Score,[25],1
same,Necr. Score,[25],1
